PMC10065799, “High-throughput profiling of sequence recognition by tyrosine kinases and SH2 domains using bacterial peptide display” (eLife, 2023)

Experiments:
Fer kinase domain = test: pTyr-Var library bacterial peptide display kinase screen (enrichment scores); format: biochemical, mouse;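 for Fer hit?: Hit requires p below 0.05 and at least twofold variant vs reference change plus filters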
Fyn kinase domain = test: as above; format: biochemical, human;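 for Fyn hit?: Hit requires p below 0.05 and at least twofold variant vs reference change plus filters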
EPHB2 kinase domain = test: as above; format: biochemical, human
EPHB1 kinase domain = test: as above; format: biochemical, human
c-Src SH2 domain = c-Src SH2 domain (Homo sapiens, UniProt P12931); test: pTyr-Var library SH2 domain screen with SH2-dynabeads (enrichment scores); details: sheet c-Src
AncSZ kinase domain = test: pTyr-Var library bacterial peptide display kinase screen (enrichment scores); format: biochemical;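 for AncSZ hit?: Hit requires p below 0.05 and at least twofold variant vs reference change plus filters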
MERTK kinase domain = test: as above; format: biochemical, human
FGFR3 kinase domain = test: as above; format: biochemical, human
Hck kinase domain = test: as above; format: biochemical, human
SHP2 C-SH2 domain = test: pTyr-Var library SH2 domain screen with SH2-dynabeads (enrichment scores)
Jak2 = test: pTyr-Var library bacterial peptide display kinase screen (enrichment scores); format: biochemical, human
c-Abl kinase domain = target: T1, c-Abl kinase domain (Mus musculus, UniProt P00520); test: as above; format: biochemical
T1 sequence (P00520 242-493 limits assumed): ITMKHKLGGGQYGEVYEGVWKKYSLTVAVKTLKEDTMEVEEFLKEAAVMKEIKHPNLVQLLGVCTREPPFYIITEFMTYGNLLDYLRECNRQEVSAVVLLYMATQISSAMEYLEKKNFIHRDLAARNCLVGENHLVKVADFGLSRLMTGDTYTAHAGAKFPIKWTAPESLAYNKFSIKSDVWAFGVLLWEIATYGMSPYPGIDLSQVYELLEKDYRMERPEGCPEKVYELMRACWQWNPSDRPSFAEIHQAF

Grb2 SH2 domain = test: pTyr-Var library SH2 domain screen with SH2-dynabeads (enrichment scores)
Fes = test: pTyr-Var library bacterial peptide display kinase screen (enrichment scores); format: biochemical
c-Src kinase domain = c-Src kinase domain (Homo sapiens, UniProt P12931); test: as above; format: biochemical
FGFR1 kinase domain = test: as above; format: biochemical, human
[1] = target: mouse c-Abl kinase domain (residues 232-502) (mouse) (UniProt P00520)
[2] = mean of log2 of enrichment over R1-R4
[3] = pTyr-Var library, enrichment score, replicate 1
[4] = pTyr-Var library, enrichment score, replicate 3
[5] = pTyr-Var library, enrichment score, replicate 4
[6] = variant versus reference peptide
[7] = variant versus reference peptide, significant hit TRUE/FALSE
[8] = mean of log2(variant) minus mean of log2(reference)
[9] = mean of log2 enrichment of variant peptide, n = 4
[10] = mean of log2 enrichment of variant peptide, n = 5
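Throughout, for c-Abl hit?: Hit requires p below 0.05 and at least twofold variant vs reference change plus filters.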

Sequence of mouse c-Abl kinase domain (residues 232-502) (mouse) (P00520 232-502): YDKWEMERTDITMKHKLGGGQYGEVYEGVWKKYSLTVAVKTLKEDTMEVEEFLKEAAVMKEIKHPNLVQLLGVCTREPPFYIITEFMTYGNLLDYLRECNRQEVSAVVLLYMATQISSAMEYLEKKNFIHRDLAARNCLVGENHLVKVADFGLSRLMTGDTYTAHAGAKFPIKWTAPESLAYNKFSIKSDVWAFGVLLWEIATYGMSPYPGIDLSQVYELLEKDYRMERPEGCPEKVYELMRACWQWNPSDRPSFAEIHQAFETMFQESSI

For ATGLIYIGSHD [AASDH_Y870_T865A], the “Fer mean of log2(enrichment)” value (Fer kinase domain; [2]) was -1.02, the “Fer enrich. R1” value (Fer kinase domain; [3]) was 0.4993 and the “Fer enrich. R3” value (Fer kinase domain; [4]) was 0.7968. The “Fer enrich. R4” value (Fer kinase domain; [5]) was 0.4647, the “Fer difference (mean log2 variant - mean log2 reference)” value (Fer kinase domain; [6]) was 0.2779 and the “Fer hit?” value (Fer kinase domain; [7]) was “FALSE”. The “Fyn mean of log2(enrichment)” value (Fyn kinase domain; [2]) was -1.279, the “Fyn enrich. R1” value (Fyn kinase domain; [3]) was 0.5717 and the “Fyn enrich. R3” value (Fyn kinase domain; [4]) was 0.2668. For the same molecule, the “Fyn enrich. R4” value (Fyn kinase domain; [5]) was 0.4414, the “Fyn difference (mean log2 variant - mean log2 reference)” value (Fyn kinase domain; [6]) was 0.2007 and the “Fyn hit?” value (Fyn kinase domain; [7]) was “FALSE”. For the same molecule, the difference (EPHB2 kinase domain; [8]) was 0.3789, the “mean of log2(variant)” value (EPHB2 kinase domain; [9]) was -0.4994 and the difference (EPHB1 kinase domain; [8]) was 0.11. The “mean of log2(variant)” value (EPHB1 kinase domain; [9]) was -0.4876, the difference (c-Src SH2 domain; [8]) was -0.1239 and the “mean of log2(variant)” value (c-Src SH2 domain; mean of log2 enrichment of variant peptide, R1-R3) was -0.9155. For the same molecule, the “AncSZ mean of log2(enrichment)” value (AncSZ kinase domain; mean of log2 of enrichment over R1-R5) was -0.2868, the “AncSZ enrich. R1” value (AncSZ kinase domain; [3]) was 0.8707 and the “AncSZ enrich. R3” value (AncSZ kinase domain; [4]) was 0.8843. For the same molecule, the “AncSZ enrich. R4” value (AncSZ kinase domain; [5]) was 0.9628, the “AncSZ enrich. R5” value (AncSZ kinase domain; pTyr-Var library, enrichment score, replicate 5) was 0.6734 and the “AncSZ difference (mean log2 variant - mean log2 reference)” value (AncSZ kinase domain; [6]) was 0.1813. The “AncSZ hit?” value (AncSZ kinase domain; [7]) was “FALSE”, the difference (MERTK kinase domain; [8]) was 0.7784 and the “mean of log2(variant)” value (MERTK kinase domain; [9]) was -0.9082. The difference (FGFR3 kinase domain; [8]) was 0.03027, the “mean of log2(variant)” value (FGFR3 kinase domain; [10]) was -0.6189 and the “Hck mean of log2(enrichment)” value (Hck kinase domain; mean of log2(variant) / mean of log2(reference), R1-R4) was 0.4694. The “Hck enrich. R1” value (Hck kinase domain; [3]) was 0.8875, the “Hck enrich. R3” value (Hck kinase domain; [4]) was 0.3766 and the “Hck enrich. R4” value (Hck kinase domain; [5]) was 0.194. The “Hck difference (variant - reference)” value (Hck kinase domain; [6]) was 0.009668, the “Hck hit?” value (Hck kinase domain; [7]) was “FALSE” and the difference (SHP2 C-SH2 domain; SHP2-C SH2, mean of log2(variant) minus mean of log2(reference)) was -0.2085. For the same molecule, the “mean of log2(variant)” value (SHP2 C-SH2 domain; SHP2-C SH2, mean of log2 enrichment of variant, R1-R3) was -0.9356, the “hit?” value (SHP2 C-SH2 domain; SHP2-C SH2, variant versus reference significant hit call) was “FALSE” and the “Jak2 mean of log2(enrichment)” value (Jak2; mean of log2 of enrichment over R1-R3) was -0.3116. For the same molecule, the “Jak2 enrich. R1” value (Jak2; [3]) was 0.8629, the “Jak2 enrich. R3” value (Jak2; [4]) was 0.7054 and the “Jak2 difference (mean log2 variant - mean log2 reference)” value (Jak2; [6]) was 0.1735. The “Jak2 hit?” value (Jak2; [7]) was “FALSE”, the “c-Abl mean of log2(enrichment)” value (c-Abl kinase domain; [2]) was -0.2804 and the “c-Abl enrich. R1” value (c-Abl kinase domain; [3]) was 0.635. The “c-Abl enrich. R3” value (c-Abl kinase domain; [4]) was 0.7155, the “c-Abl enrich. R4” value (c-Abl kinase domain; [5]) was 1.499 and the “c-Abl hit?” value (c-Abl kinase domain; [7]) was “FALSE”. The difference (Grb2 SH2 domain; Grb2 SH2, mean of log2(variant) minus mean of log2(reference)) was -0.4428, the “mean of log2(variant)” value (Grb2 SH2 domain; Grb2 SH2, mean of log2 enrichment of variant, R1-R3) was -0.4021 and the “hit?” value (Grb2 SH2 domain; Grb2 SH2, variant versus reference significant hit call) was “FALSE”. For the same molecule, the “Fes mean of log2(enrichment)” value (Fes; mean of log2 of enrichment over R1-R6) was 0.1901, the “Fes enrichment (mean)” value (Fes; pTyr-Var library, enrichment score, mean of replicates R1-R6) was 1.145 and the “Fes difference (mean log2 variant - mean log2 reference)” value (Fes; [6]) was 0.6008. The “c-Src mean of log2(enrichment)” value (c-Src kinase domain; [2]) was -1.071, the “c-Src enrich. R1” value (c-Src kinase domain; [3]) was 0.5345 and the “c-Src enrich. R3” value (c-Src kinase domain; [4]) was 0.3128. The “c-Src enrich. R4” value (c-Src kinase domain; [5]) was 0.6339, the “c-Src difference (mean log2 variant - mean log2 reference)” value (c-Src kinase domain; [6]) was 0.2235 and the “c-Src hit?” value (c-Src kinase domain; [7]) was “FALSE”. For the same molecule, the difference (FGFR1 kinase domain; [8]) was -0.06079 and the “mean of log2(variant)” value (FGFR1 kinase domain; [10]) was -1.25.

Ac-GAPEVIYATPGAKKKG-NH2 [AblTide (2014) peptide Ac-…-NH2] was tested, and the KM (μM) of phosphorylation, Michaelis-Menten analysis, ADP-Quest assay [1] was 35 µM.
